Data on seven substances can be found in PMC8097335, “A High‐Affinity Calmodulin‐Binding Site in the CyaA Toxin Translocation Domain is Essential for Invasion of Eukaryotic Cells” (Advanced Science, 2021).

Series [1] can be described thus: Peptide titrations by SUVs followed by tryptophan fluorescence (solution-to-membrane partition). It counts as physicochemical. The settings on record: for Partition coefficient KX: POPC:POPG 8:2 SUVs, buffer A pH 7.4, 25 °C, tryptophan fluorescence ratio 330/370 nm; for Partition coefficient KX / ∆GKx for POPC POPG 8:2: S.D. within ± 10%; for pKd: converted from KX: [W]/KX = Kd, [W] = 55.5 M, read-out: Kd for POPC:POPG 8:2; for ∆GKx for POPC POPG 8:2: ∆GKx = -RT Ln Kx. As for the experimental part: Lipid vesicles preparation
Small unilamellar vesicles (SUVs) and large unilamellar vesicles (LUVs) were prepared with POPC and POPG at a molar ratio of 8:2, at a lipid concentration of 10 mM in buffer A, as previously described 1. Briefly, SUVs and LUVs were prepared by reverse phase evaporation and filtered through polycarbonate filters of 1 μm and 0.2 μm of pore size diameter to obtain L UV. SUVs were further sonicated. The hydrodynamic diameters and mean net charge of the vesicles were measured by dynamic light scattering (DLS) and electrophoretic mobility, respectively, using a ZetaSizer NanoZS (Malvern Pananalytical , Orsay, France) 11.
Peptide titrations bySUV s and CaM followed by tryptophan fluorescence
Titrations were carried out with a FP-8200 Jasco spectrofluorimeter, equipped with a Pelt ie r - thermostated ETC-272T at 25°C. A bandwidth of 5 nm was used for both excitation and […]
(Hellma, France) with constant stirring. Fluorescence emission was recorded between 300 and […]
400 nm at a scan rate of 100 nm/min, with an excitation wavelength of 280 nm. Fluorescence emission spectra were corrected for SUV or CaM baselines . Fluorescence intensity ratio at 330 nm over 370 nm was use d to measure the partition coefficient (K X) of peptides between the solution andmembrane s 1, 12 and the affinity (K d) of peptides for CaM 13.
Determination of partition coefficient KX and dissociation constant Kd from […]
The partition coefficient KX is defined as the ratio of protein in the lipid (PL) and in buffer […]
(PW) pha se s 12, 14, expressed by: KKXX = [LL ]? , giving[PPWW ] [PPWW ]= [WW], where [W] the […]
concentration of water (55.5 M) and [L] the lipid concentration.
The fraction of peptide partitioned into the membrane, fPL, is equal to:
ffPPLL = [PPLL ][PPTT ]= [PPLL ][PPLL ]+[PPWW ]= 11+([PPWW ])= 11+( [WW]), where PT is the total concentration of peptides [PP TT ]= [PP LL ]+ [PP WW ]. […]
The equations a re fitted to the experimental data using the KaleidaGraph software, providing the KX and K d value s. The partition coefficient is related to the apparent dissociation constant:
KKXX × KKdd = [WW ] and to the free energy of partition ΔG Kx = -RTln(K X), where ΔG is the free energy in kcal/mol, R the gas constant (R = 1.98 x 10-3 kcal/mol/K) and T the temperature i n Kelvin. The free energy of peptide CaM interaction, ∆G Kd, is given by ΔG Kd = RTln(K d).
Sedimentation velocity-Analytical ultracentrifugation (SV -AUC) […]
ratio 1:1 (at 70 µM each). Samples were incubated 2h at 20°C in the ultracentrifuge and, then span at 42,000 rpm in an An-50 Ti rotor. […]

Series [2] can be described thus: Membrane permeabilization of ANTS/DPX-loaded LUVs. The note with it: ANTS:DPX LUVs POPC:POPG 8:2, 0.45 mM lipid, buffer A pH 7.4, 25 °C, ex 390/em 515 nm; S.D. ± 5%.
Procedure: To monitor membrane permeabilization induced by peptides, ANTS (fluorophore probe) and
DPX (quencher) were encapsulated into large unilamellar vesicles (LUVs). The LUVs were
prepared at a concentration of 10 mM lipid at a POPC:PO PG molar ratio of 8:2 containing 20
mM ANTS and 60 mM DPX. The multilamellar vesicle suspension was extrudedthrough 0.4-
and 0.2 μm polycarbonate filters to produce LUVs. The unencapsulated ANT S a nd DPX we re
removed by gel filtration with a 5 mL Sephadex G -25 column (GE Healthcare Life Sciences ).
For permeabilization assays, LUVs were incubated in buffer A at 0.45 mM lipid
concentration at 25°C in a 101-QS cuvette (Hellma, France) and under constant stirring.
excitation wavelength was set at 390 nm and the emission of ANTS was continuously
measured at 515 nm. The maximum intensity of permeabilization, corresponding to the
maximum recovery of ANTS fluorescence, was measured after addition of 0.1% of Triton
X100. The concentration of membrane-bound peptide s required to induce the recovery of half
intensity of the ANTS fluorescence (C P1/2) was extracted from the permeabilization intensity
a s a function of peptide concentration 1.
LUVs were incubated in buffer B at a lipid concentration of 0.45 mM.
After a few seconds of permeabilization,
holo-Ca M wa s added t o t he solution at a peptide:Ca M molar ratio of 1:3. EDT A wa s
subsequently added in excess to chelate calcium and convert holo -CaM to apo -C a M .
A further series has as its target T1, calmodulin (CaM) (Homo sapiens, UniProt P0DP23).
T1 construct: made in house; host or cells: E. coli
Kind of series: Peptide titrations by CaM followed by tryptophan fluorescence, and ITC (Kd for CaM). In kind it is binding. The settings on record: for pKd: holo-CaM, from fluorescent titrations and ITC, 25 °C, average of at least three independent replicates; for pKd / ∆GKd for CaM: S.D. within ± 10%; for ∆GKd for CaM: ΔGKd = RTln(Kd).

Series [3] in a line: Synchrotron radiation circular dichroism, alpha-helical content (Bestsel). In kind it is physicochemical. The settings on record: 25 °C, far-UV SRCD; for alpha-helical content, TFE 20%: 20% TFE; for alpha-helical content, POPC:POPG 8:2: SUVs POPC:POPG 8:2 at 2 mM lipid; for alpha-helical content, Solution: buffer A. As for the experimental part: Synchrotron Radiation Circular Dichroism
Synchrotron radiation circular dichroism (SRCD) was performed on the DISCO beamline of the synchrotron SOLEIL (Saint -Aubin, France) . Spectra were recorded at 25°C with an integration time of 1.2 s and a bandwidth of 1 nm with a resolution of 1 nm. A far-UV spectrum represents the average of four individual scans. QS cells (Hellma, France) with a pathlength of 20, 50, 100 or 200 μm (depending on final protein concentrations) were used to record spectra in the fa r -UV range (from 190 to 250 nm). CD spectra of peptides and proteins were measured in buffers A and B, 20% of trifluoroethanol (TFE), in the presence of SUVs (POPC :PO PG 8: 2) or Ca M. Secondary structure content was estimated using Bestsel software […]
Table S8: Estimation of the α -helical content of P454-derived peptides. The secondary structure content is estimated using the on-line Bestsel software 17 available at http://bestsel.elte.hu/index.php. […]
peptide in buffer A, in 20% TFE and in the presence of POPC POPG (molar ratio 8:2) at 2 mM lipid concentration. The far -UV CD spectra of several P454-derived peptides are shown […]
Background: Circular dichroism is the unequal absorption of left and right circularly polarised light.

As a reminder, the pKd is the Kd on a negative log10 scale, so that one unit is a factor of ten.

pKd: −log10 of the molar value.

Source text for calmodulin (CaM): peptides by CaM and is expressed as follows: 𝐾𝐾 𝑑𝑑 = [𝑃𝑃 ]∗[𝐶𝐶𝐶𝐶𝐶𝐶 ][𝑃𝑃:𝐶𝐶𝐶𝐶𝐶𝐶] , given 𝐾𝐾𝑑𝑑[𝐶𝐶𝐶𝐶𝐶𝐶]= [𝑃𝑃 ][𝑃𝑃 :𝐶𝐶𝐶𝐶𝐶𝐶]and the fraction of complex, fP:CaM, i s: 𝑓𝑓𝑃𝑃:𝐶𝐶𝐶𝐶𝐶𝐶 = [𝑃𝑃 :𝐶𝐶𝐶𝐶𝐶𝐶 ][𝑃𝑃:𝐶𝐶𝐶𝐶𝐶𝐶]+[𝑃𝑃]= 11+ [𝑃𝑃 ]= 11+ 𝐾𝐾𝑑𝑑.

For “Ac-ASAHWGQQALQGAQAVAAAQQLVHAIALMTQ-NH2 [P454 R12Q]”, in series [1], the “Partition coefficient KX” value was 70 ×10^3, the pKd is 3.10 and the “∆GKx for POPC POPG 8:2” value was -6.6 kcal/mol. Besides, the “CP1/2, peptide concentration required to induce recovery of 50% of ANTS fluorescence intensity upon LUVs permeabilization” value in series [2] stood at 0.23 µM. For the same substance, on calmodulin (CaM), the pKd was 5.68 and the “∆GKd for CaM” value was -7.7 kcal/mol. Besides, in series [3], the “alpha-helical content, TFE 20%” value is 50 ± 2%; the “alpha-helical content, POPC:POPG 8:2” value was 23 ± 1%; the “alpha-helical content, Solution” value was 8 ± 4%.

In the case of “Ac-ASAHWGQRALQGAQAVAAAQRAVHAIALMTQ-NH2 [P454 L475A]”, in series [1], the “Partition coefficient KX” value was 350 ×10^3, the pKd was 3.80 and the “∆GKx for POPC POPG 8:2” value is listed as -7.7 kcal/mol. Also, the “CP1/2, peptide concentration required to induce recovery of 50% of ANTS fluorescence intensity upon LUVs permeabilization” value in series [2] came to 0.64 µM. At calmodulin (CaM), the pKd was 6.92 and the “∆GKd for CaM” value is recorded as -9.4 kcal/mol. Moreover, in series [3], the “alpha-helical content, TFE 20%” value was 45 ± 1%; the “alpha-helical content, POPC:POPG 8:2” value is given as 15 ± 1%; the “alpha-helical content, Solution” value amounted to 5 ± 2%.

On to “Ac-ASAHWGQRALQGAQAVAAAQRLVHAVALMTQ-NH2 [P454 I479V]”, for which, in series [1], the “Partition coefficient KX” value is 560 ×10^3, the pKd was 4.00 and the “∆GKx for POPC POPG 8:2” value is given as -7.8 kcal/mol. The “CP1/2, peptide concentration required to induce recovery of 50% of ANTS fluorescence intensity upon LUVs permeabilization” value in series [2] turned out to be 0.09 µM. Further, on calmodulin (CaM), the pKd is 6.96 and the “∆GKd for CaM” value is -9.4 kcal/mol. For the same substance, in series [3], the “alpha-helical content, TFE 20%” value is 47 ± 6%; the “alpha-helical content, POPC:POPG 8:2” value is recorded as 37 ± 2%; the “alpha-helical content, Solution” value is reported as 2 ± 1%.

Regarding “Ac-ASAHWGQRALQGAQAVAAAQRLVHAIAAMTQ-NH2 [P454 L481A]”, in series [1], the “Partition coefficient KX” value is 780 ×10^3, the pKd was 4.15 and the “∆GKx for POPC POPG 8:2” value is recorded as -8 kcal/mol. In series [2], the “CP1/2, peptide concentration required to induce recovery of 50% of ANTS fluorescence intensity upon LUVs permeabilization” value is 0.06 µM. Further, on calmodulin (CaM), the pKd is 7.05 and the “∆GKd for CaM” value is -9.6 kcal/mol. In series [3], the “alpha-helical content, TFE 20%” value worked out at 49 ± 1%; the “alpha-helical content, POPC:POPG 8:2” value was determined as 44 ± 3%; the “alpha-helical content, Solution” value came out at 5 ± 1%.

For “Ac-ASAHAGQRAAQGAQAVAAAQRLVHAIALMTQ-NH2 [P454 W458A-L463A]”, in series [1], the “Partition coefficient KX” value is recorded as 22 ×10^3, the pKd was 2.59 and the “∆GKx for POPC POPG 8:2” value is -5.9 kcal/mol. Besides, in series [2], the “CP1/2, peptide concentration required to induce recovery of 50% of ANTS fluorescence intensity upon LUVs permeabilization” value came to 6.59 µM. Moreover, the “Decrease of affinity for CaM relative to P454” value at calmodulin (CaM) (from Table S3) is listed as 4 fold. For the same substance, on calmodulin (CaM), the pKd was 6.19 and the “∆GKd for CaM” value is on record as -8.4 kcal/mol. Besides, in series [3], the “alpha-helical content, TFE 20%” value was 56%; the “alpha-helical content, POPC:POPG 8:2” value is given as 8 ± 2%; the “alpha-helical content, Solution” value stood at 7 ± 1%.

For “Ac-ASAHWGQKALQGAQAVAAAQKLVHAIALMTQ-NH2 [P454 R12K]”, in series [1], the “Partition coefficient KX” value is recorded as 220 ×10^3, the negative-log Kd (pKd) was 3.59 and the “∆GKx for POPC POPG 8:2” value is on record as -7.3 kcal/mol. Also, the “CP1/2, peptide concentration required to induce recovery of 50% of ANTS fluorescence intensity upon LUVs permeabilization” value in series [2] turned out to be 0.09 µM. In addition, at calmodulin (CaM), the pKd is 7.30 and the “∆GKd for CaM” value is reported as -9.9 kcal/mol. Besides, in series [3], the “alpha-helical content, TFE 20%” value was found to be 45 ± 4%; the “alpha-helical content, POPC:POPG 8:2” value came out at 26 ± 1%; the “alpha-helical content, Solution” value is 13 ±2%.

For “Ac-ASAHWGQRALQGAQAVAAAQRLVHAAALMTQ-NH2 [P454 I479A]”, in series [1], the “Partition coefficient KX” value was 330 ×10^3, the pKd was 3.77 and the “∆GKx for POPC POPG 8:2” value is -7.5 kcal/mol. In addition, the “CP1/2, peptide concentration required to induce recovery of 50% of ANTS fluorescence intensity upon LUVs permeabilization” value in series [2] stood at 7.86 µM. Besides, on calmodulin (CaM), the “∆GKd for CaM” value is -7.9 kcal/mol. In series [3], the “alpha-helical content, TFE 20%” value is 29 ± 1%; the “alpha-helical content, POPC:POPG 8:2” value turned out to be 12 ± 3%; the “alpha-helical content, Solution” value stood at 8 ± 2%.
